From patent US8303960B2, “Radiolabeled affibody molecules” (The United States of America, as represented by the …, priority 2007, dated 2012)
Values joined by “and” are separate entries in the source; they are usually repeats but may differ in a detail not shown here. Identical values can stand only once.

How the values were obtained:
Type in all cases: in vivo, mice
HER2 [1] = test: PET imaging of ^18F-ZHER2-affibody tumor uptake before and after 17-DMAG; details: 84 h post-treatment; BT-474 and MCF7/clone 18 tumors
Description: Mice bearing BT-474 or MCF7/clone18 subcutaneous tumors are treated with two doses (30-50 mg/kg, 12 or 24 h apart) of 17-DMAG. Animals (n=4-6) are scanned before, 36 h, and 84 h after the treatment. Immediately after the last scan, the animals are euthanized, and the tumors are frozen for further analysis. HER2 expression in the tumors is then measured ex-vivo by western blot (Table 2) and ELISA (Table 3). In animals treated with 17-DMAG, the accumulation of radioactivity estimated by PET imaging decreases 50-70% at 84 h post-treatment (FIGS. 11 and 12). This change is confirmed by the biodistribution studies, see, e.g., FIG. 13.

HER2 [2] = test: Ex-vivo ELISA of tumor tissue lysates after 17-DMAG treatment
Description: (§1) Mice bearing BT-474 or MCF7/clone18 subcutaneous tumors are treated with two doses (30-50 mg/kg, 12 or 24 h apart) of 17-DMAG. Animals (n=4-6) are scanned before, 36 h, and 84 h after the treatment. Immediately after the last scan, the animals are euthanized, and the tumors are frozen for further analysis. HER2 expression in the tumors is then measured ex-vivo by western blot (Table 2) and ELISA (Table 3).

HER2 [3] = test: Ex-vivo western blot of tumor tissue lysates after 17-DMAG treatment; details: for HER2 western blot signal, fraction of control lane (in parentheses): lane (3) relative to lane (1); for HER2 western blot, mean intensity of the signal: after 17-DMAG
Description: as §1

Compound: CO[C@H]1/C=C\C=C(/C)C(=O)NC2=CC(=O)C(NCCN(C)C)=C(C[C@@H](C)C[C@H](OC)[C@H](O)[C@@H](C)/C=C(\C)[C@@H]1OC(N)=O)C2=O [17-DMAG, 17-dimethylaminoethylamino-17-demethoxygeldanamycin]
- decrease of accumulation of radioactivity estimated by PET imaging (HER2 [1]): 50-70%
- HER2 in tissue lysate (ELISA) (HER2 [2]; BT-474 tumor after 17-DMAG, Trial 1): 541.41 fmol/mg protein
- HER2 in tissue lysate (ELISA) (HER2 [2]; BT-474 tumor after 17-DMAG, Trial 2): 504.86 fmol/mg protein
- HER2 (ELISA), fraction of untreated control (in parentheses) (HER2 [2]; BT-474 tumor, Trial 1): (0.35)
- HER2 (ELISA), fraction of untreated control (in parentheses) (HER2 [2]; BT-474 tumor, Trial 2): (0.30)
- HER2 in tissue lysate (ELISA) (HER2 [2]; MCF7/clone 18 tumor after 17-DMAG, Trial 1): 602.19 fmol/mg protein
- HER2 in tissue lysate (ELISA) (HER2 [2]; MCF7/clone 18 tumor after 17-DMAG, Trial 2): 516.77 fmol/mg protein
- HER2 (ELISA), fraction of untreated control (in parentheses) (HER2 [2]; MCF7/clone 18 tumor, Trial 1): (0.43)
- HER2 (ELISA), fraction of untreated control (in parentheses) (HER2 [2]; MCF7/clone 18 tumor, Trial 2): (0.36)
- HER2 western blot signal, fraction of control lane (in parentheses) (HER2 [3]; dry transfer): (0.36)
- HER2 western blot, mean intensity of the signal (HER2 [3]; dry transfer, lane (3)): 43.24 DU
- HER2 western blot, mean intensity of the signal (HER2 [3]; dry transfer, lanes (5) and (6)): 99.85 DU and 88.68 DU
- decrease of HER2 expression (HER2 [3]; ex vivo analysis of tumor samples by western blots and ELISA): 50-70%
- HER2 western blot signal, fraction of control lane (in parentheses) (HER2 [3]; wet transfer): (0.34)
- HER2 western blot, mean intensity of the signal (HER2 [3]; wet transfer, lane (3)): 83.08 DU
- HER2 western blot, mean intensity of the signal (HER2 [3]; wet transfer, lanes (5) and (6)): 187.69 DU and 156.39 DU
